Laboratory results: US11873279B2, “Compositions for treatment of ocular diseases” (Perfuse Therapeutics, Inc., priority 2020, dated 2024)

How the values were obtained:
[1] = test system: laser-induced NHP glaucoma model; assay: Laser-induced NHP glaucoma model, optic nerve head blood flow; type: in vivo, non-human primate (NHP); conditions: dose-dependent
Text: Other examples of relevant animal glaucoma models are Morrison's rat model of chronically elevated IOP and the laser-induced non-human primate (NHP) glaucoma model. Glaucoma in Morrison's rat model is induced by sustained elevation of IOP through hypertonic saline administration via episcleral veins. […] Efficacy in the above-described glaucoma models is defined as reduction in IOP, improvement in optic nerve head or retinal blood flow from baseline, prevention or slowing of the progression of structural neurodegenerative changes such as retinal nerve fiber layer thickness as measured by optical coherence tomography (OCT) or retinal ganglion cell counts on flat mount as well as functional changes such as electroretinography (ERG) or contrast sensitivity after treatment with a composition containing Edonentan crystalline forms.

[2] = Slurry conversion of crystalline forms, XRPD confirmation (thermodynamic stability); type: physicochemical
Protocol: For example, a disclosed crystalline form (e.g., Form 4), may be stored under practical and economical storage conditions, while retaining physical properties so that it may be manufactured into a dosage form. In another set of examples, a disclosed crystalline form (e.g., Form 1, Form 2, Form 3) are converted to disclosed crystalline form (e.g., Form 4). For example, heating a slurry of crystalline Form 1 in about 20 mL of a mixture of isopropanol and water (1:2) at 80° C. for 24 hours, and then cooling and filtering the sample obtained from the solution affords the crystalline Form 4. In another example, stirring the amorphous form of a compound of Formula I in 20 mL of water at 25° C. for 15 hours affords crystalline Form 2, and then subsequently heating crystalline Form 2 at 100° C. for 40 hours followed by filtration affords the crystalline Form 4. In yet another example, heating a slurry of the anhydrous crystalline Form 3 in 30 mL of water at 80° C. for 40 hours and then cooling and filtering the sample obtained from the solution affords the crystalline Form 4. […] In an embodiment, a disclosed crystalline form may have improved chemical and/or physical stability when e.g., compounded in a pharmaceutical formulation, as compared to e.g., the amorphous form. In some embodiments, the crystalline form is crystalline Form 4.
In an alternate method, 150 mg of Edonentan (Form 3) was added to a mixture of isopropanol and water (1 mL and 2 mL, respectively). The resulting slurry was stirred at 15° C. for 48 hours and then filtered.
In an alternate method, 200 mg of Edonentan (Form 1) was added to a mixture of isopropanol and water (1.3 mL and 2.6 mL, respectively). The resulting solution was heated to 80° C. and stirred for 24 h, then cooled and filtered.

Row | SMILES | Optic nerve head blood flow [1] | Thermodynamic stability relative to Form 1 ([2]; Form 1 in isopropanol/water (1.3 mL/2.6 mL), 80° C., 24 h, converted to Form 4 by XRPD) | Thermodynamic stability relative to Form 3 ([2]; Form 3 slurry in isopropanol/water (1 mL/2 mL), 15° C., 48 hours, converted to Form 4 by XRPD) | Thermodynamic stability compared to the other crystalline forms ([2]; summary statement of Example 6)
1 | Cc1onc(NS(=O)(=O)c2ccccc2-c2ccc(-c3ncco3)cc2CN(C)C(=O)CC(C)(C)C)c1C [Edonentan, N-[[2′-[[(4,5-dimethyl-3-isoxazolyl)amino]sulfonyl]-4-(2-oxazolyl)[1,1′-biphenyl]-2-yl]methyl]-N,3,3-trimethylbutanamide] | improve optic nerve head blood flow in a dose-dependent manner |  |  | 
2 | Cc1onc(NS(=O)(=O)c2ccccc2-c2ccc(-c3ncco3)cc2CN(C)C(=O)CC(C)(C)C)c1C [Form 4, N-[[2′-[[(4,5-dimethyl-3-isoxazolyl)amino]sulfonyl]-4-(2-oxazolyl)[1,1′-biphenyl]-2-yl]methyl]-N,3,3-trimethylbutanamide] |  | more thermodynamically stable than Form 1 | more thermodynamically stable than Form 3 | higher thermodynamic stability compared to Form 1, Form 2 and Form 3
